Source: ChEMBL document CHEMBL1201862, “PubChem BioAssay data set” (2004)
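96-well plates; 48 h exposure; 5 concentrations. Endpoints by linear interpolation between flanking doses. Not reached: highest tested concentration assigned. GI50 is the concentration that inhibits growth by half.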 Activity calls are given as the source filed them. Rule as the data show it: active = GI50 up to about 1.1 µM and inactive = higher.

Experiments:
Test in all cases: growth of human tumour cells (NCI), 48 h
SK-OV-3 = tested on: SK-OV-3
IGROV-1 = tested on: IGROV-1
NCI-H460 = tested on: NCI-H460
786-0 = tested on: 786-0
ACHN = tested on: ACHN
OVCAR-4 = tested on: OVCAR-4
NCI/ADR-RES = tested on: NCI/ADR-RES
SK-MEL-28 = tested on: SK-MEL-28
RXF 393 = tested on: RXF 393
UACC-257 = tested on: UACC-257
SNB-19 = tested on: SNB-19
MOLT-4 = tested on: MOLT-4
U-251 = tested on: U-251
HCT-15 = tested on: HCT-15
Malme-3M = tested on: Malme-3M
LOX IMVI = tested on: LOX IMVI
PC-3 = tested on: PC-3
CAKI-1 = tested on: CAKI-1
UO-31 = tested on: UO-31
K562 = tested on: K562

With Oc1c2ccccc2c2c3c(cccc13)N=N2 [SP-600125] the GI50 (SK-OV-3) was 21 µM (inactive), the GI50 (IGROV-1) was 11.4 µM (inactive) and the GI50 (NCI-H460) was 9.86 µM (inactive). For the same compound, the GI50 (786-0) was 27.1 µM (inactive), the GI50 (ACHN) was 6.64 µM (inactive) and the GI50 (OVCAR-4) was 31.9 µM (inactive). For the same compound, the GI50 (NCI/ADR-RES) was 22.6 µM (inactive), the GI50 (SK-MEL-28) was 37.6 µM (inactive) and the GI50 (RXF 393) was 20.7 µM (inactive). The GI50 (UACC-257) was 29.5 µM (inactive), the GI50 (SNB-19) was 50 µM (inactive) and the GI50 (MOLT-4) was 20.4 µM (inactive). For the same compound, the GI50 (U-251) was 23.1 µM (inactive), the GI50 (HCT-15) was 8.04 µM and the GI50 (Malme-3M) was 16.4 µM (inactive). For the same compound, the GI50 (LOX IMVI) was 12.8 µM (inactive), the GI50 (PC-3) was 23.3 µM (inactive) and the GI50 (CAKI-1) was 3.56 µM (inactive). The GI50 (UO-31) was 10.5 µM (inactive) and the GI50 (K562) was 48.6 µM (inactive).

With N=C(CC(=O)NOC(=O)c1ccccc1)NOC(=O)c1ccccc1 the GI50 (SK-OV-3) was 28.7 µM (inactive), the GI50 (IGROV-1) was 14.7 µM (inactive) and the GI50 (NCI-H460) was 31.1 µM (inactive). For the same compound, the GI50 (786-0) was > 100 µM (inactive), the GI50 (ACHN) was 29.6 µM (inactive) and the GI50 (OVCAR-4) was 18.3 µM (inactive). For the same compound, the GI50 (NCI/ADR-RES) was 25.5 µM (inactive), the GI50 (SK-MEL-28) was 27.5 µM (inactive) and the GI50 (RXF 393) was 10.8 µM (inactive). The GI50 (UACC-257) was > 100 µM (inactive), the GI50 (SNB-19) was 71.6 µM (inactive) and the GI50 (MOLT-4) was 28.5 µM (inactive). For the same compound, the GI50 (U-251) was 34.1 µM (inactive), the GI50 (HCT-15) was 38.5 µM and the GI50 (Malme-3M) was > 100 µM (inactive). For the same compound, the GI50 (LOX IMVI) was 17.7 µM (inactive), the GI50 (PC-3) was > 100 µM (inactive) and the GI50 (CAKI-1) was 36.9 µM (inactive). The GI50 (UO-31) was 19.1 µM (inactive) and the GI50 (K562) was 28.5 µM (inactive).

COC1(OC)CC(CO)(COc2cc(Cl)nc(N)n2)C1 was tested, and the GI50 (SK-OV-3) was > 100 µM (inactive), the GI50 (IGROV-1) was > 100 µM (inactive) and the GI50 (NCI-H460) was > 100 µM (inactive). The GI50 (786-0) was > 100 µM (inactive), the GI50 (ACHN) was > 100 µM (inactive) and the GI50 (OVCAR-4) was > 100 µM (inactive). For the same compound, the GI50 (NCI/ADR-RES) was > 100 µM (inactive), the GI50 (SK-MEL-28) was > 100 µM (inactive) and the GI50 (RXF 393) was > 100 µM (inactive). The GI50 (UACC-257) was > 100 µM (inactive), the GI50 (SNB-19) was > 100 µM (inactive) and the GI50 (MOLT-4) was > 100 µM (inactive). The GI50 (U-251) was > 100 µM (inactive), the GI50 (HCT-15) was > 100 µM and the GI50 (Malme-3M) was > 100 µM (inactive). The GI50 (LOX IMVI) was > 100 µM (inactive), the GI50 (PC-3) was > 100 µM (inactive) and the GI50 (CAKI-1) was > 100 µM (inactive). For the same compound, the GI50 (UO-31) was > 100 µM (inactive) and the GI50 (K562) was > 100 µM (inactive).

CC(C)(C)OC(=O)N1CCC2(CC1)C(=O)NCN2c1ccccc1 was tested, and the GI50 (SK-OV-3) was > 100 µM (inactive), the GI50 (IGROV-1) was > 100 µM (inactive) and the GI50 (NCI-H460) was > 100 µM (inactive). For the same compound, the GI50 (786-0) was > 100 µM (inactive), the GI50 (ACHN) was > 100 µM (inactive) and the GI50 (OVCAR-4) was > 100 µM (inactive). For the same compound, the GI50 (NCI/ADR-RES) was > 100 µM (inactive), the GI50 (SK-MEL-28) was > 100 µM (inactive) and the GI50 (RXF 393) was > 100 µM (inactive). For the same compound, the GI50 (UACC-257) was > 100 µM (inactive), the GI50 (SNB-19) was > 100 µM (inactive) and the GI50 (MOLT-4) was > 100 µM (inactive). For the same compound, the GI50 (U-251) was > 100 µM (inactive), the GI50 (HCT-15) was > 100 µM and the GI50 (Malme-3M) was > 100 µM (inactive). The GI50 (LOX IMVI) was > 100 µM (inactive), the GI50 (PC-3) was > 100 µM (inactive) and the GI50 (CAKI-1) was > 100 µM (inactive). For the same compound, the GI50 (UO-31) was > 100 µM (inactive) and the GI50 (K562) was 77.8 µM (inactive).

CC(C)(C)c1ccc(OCC(=O)O)c(Cl)c1 was tested, and the GI50 (SK-OV-3) was > 100 µM (inactive), the GI50 (IGROV-1) was > 100 µM (inactive) and the GI50 (NCI-H460) was > 100 µM (inactive). For the same compound, the GI50 (786-0) was > 100 µM (inactive), the GI50 (ACHN) was > 100 µM (inactive) and the GI50 (OVCAR-4) was > 100 µM (inactive). For the same compound, the GI50 (NCI/ADR-RES) was > 100 µM (inactive), the GI50 (SK-MEL-28) was > 100 µM (inactive) and the GI50 (RXF 393) was > 100 µM (inactive). For the same compound, the GI50 (UACC-257) was > 100 µM (inactive), the GI50 (SNB-19) was > 100 µM (inactive) and the GI50 (MOLT-4) was > 100 µM (inactive). For the same compound, the GI50 (U-251) was > 100 µM (inactive), the GI50 (HCT-15) was > 100 µM and the GI50 (Malme-3M) was > 100 µM (inactive). For the same compound, the GI50 (LOX IMVI) was > 100 µM (inactive), the GI50 (PC-3) was > 100 µM (inactive) and the GI50 (CAKI-1) was > 100 µM (inactive). For the same compound, the GI50 (UO-31) was > 100 µM (inactive) and the GI50 (K562) was > 100 µM (inactive).
